Results reported in ChEMBL document CHEMBL6071142, “Isoalantolactone/hydroxamic acid hybrids as potent dual STAT3/HDAC inhibitors and self-assembled nanoparticles for cancer therapy” (Eur J Med Chem, 2024).

Assays:
Histone deacetylase 1 = Histone deacetylase 1 (Homo sapiens, UniProt Q13547); assay: Inhibition of recombinant human HDAC1 using Boc-Lys (acetyl)-AMC as substrate preincubated with compound for 1 hr followed by substrate addition and measured after 30 mins by microplate reader assay
Histone deacetylase 2 = Histone deacetylase 2 (Homo sapiens, UniProt Q92769); assay: Inhibition of recombinant human HDAC2 using Boc-Lys (acetyl)-AMC as substrate preincubated with compound for 1 hr followed by substrate addition and measured after 30 mins by microplate reader assay
Histone deacetylase 3 = Histone deacetylase 3 (Homo sapiens, UniProt O15379); assay: Inhibition of recombinant human HDAC3 using Boc-Lys (acetyl)-AMC as substrate preincubated with compound for 1 hr followed by substrate addition and measured after 30 mins by microplate reader assay
[1] = target: T1, Protein deacetylase HDAC6 (Homo sapiens, UniProt Q9UBN7); assay: Inhibition of recombinant human HDAC6 using Boc-Lys (acetyl)-AMC as substrate preincubated with compound for 1 hr followed by substrate addition and measured after 30 mins by microplate reader assay
T1 sequence (Q9UBN7 whole entry): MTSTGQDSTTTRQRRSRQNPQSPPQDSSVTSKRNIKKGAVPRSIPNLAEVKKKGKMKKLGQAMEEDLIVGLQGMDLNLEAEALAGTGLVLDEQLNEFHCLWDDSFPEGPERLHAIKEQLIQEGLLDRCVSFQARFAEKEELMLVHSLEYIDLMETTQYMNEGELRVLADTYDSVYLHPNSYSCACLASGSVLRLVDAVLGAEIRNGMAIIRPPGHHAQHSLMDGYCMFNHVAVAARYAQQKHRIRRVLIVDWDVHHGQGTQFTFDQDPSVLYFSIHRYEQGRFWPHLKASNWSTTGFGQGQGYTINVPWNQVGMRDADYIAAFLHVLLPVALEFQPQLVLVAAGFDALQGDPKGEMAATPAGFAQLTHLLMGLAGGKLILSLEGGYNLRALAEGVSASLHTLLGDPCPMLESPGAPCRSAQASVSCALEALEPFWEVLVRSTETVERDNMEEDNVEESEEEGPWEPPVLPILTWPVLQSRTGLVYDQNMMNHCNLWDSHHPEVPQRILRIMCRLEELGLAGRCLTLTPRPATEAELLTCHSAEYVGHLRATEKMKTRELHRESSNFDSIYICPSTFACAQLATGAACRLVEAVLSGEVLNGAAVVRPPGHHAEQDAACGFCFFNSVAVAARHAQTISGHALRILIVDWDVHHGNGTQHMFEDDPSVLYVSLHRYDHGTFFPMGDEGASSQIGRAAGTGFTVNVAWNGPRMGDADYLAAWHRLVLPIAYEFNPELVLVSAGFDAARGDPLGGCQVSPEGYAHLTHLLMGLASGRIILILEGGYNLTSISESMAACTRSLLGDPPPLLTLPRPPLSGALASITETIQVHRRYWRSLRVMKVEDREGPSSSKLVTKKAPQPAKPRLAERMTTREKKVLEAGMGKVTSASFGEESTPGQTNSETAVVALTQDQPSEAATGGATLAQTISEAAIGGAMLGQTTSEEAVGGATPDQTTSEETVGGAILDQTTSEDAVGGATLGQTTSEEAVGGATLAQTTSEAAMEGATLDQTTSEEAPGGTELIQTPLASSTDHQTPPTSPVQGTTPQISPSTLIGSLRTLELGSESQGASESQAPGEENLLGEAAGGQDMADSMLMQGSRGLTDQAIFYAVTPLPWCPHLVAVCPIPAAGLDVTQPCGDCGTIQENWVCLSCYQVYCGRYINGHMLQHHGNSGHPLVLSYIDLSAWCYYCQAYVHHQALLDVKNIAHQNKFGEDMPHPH

[2] = target: Signal transducer and activator of transcription 3 (Homo sapiens, UniProt P40763); assay: Binding affinity to STAT3 (unknown origin) assessed as dissociation constant by SPR assay
A549 [3] = assay: cells; format: functional, cell-based; conditions: Homo sapiens, A549, 72 h
Description: Antiproliferative activity against human A549 cells assessed as inhibition of cell proliferation incubated for 72 hrs by CCK-8 assay

A549 [4] = assay: Induction of apoptosis in human A549 cells assessed as viable cells at 2 uM incubated for 24 hrs by Annexin V-FITC/PI staining based flow cytometric analysis (reference value: 95.08%); format: functional
A549 [5] = assay: Induction of apoptosis in human A549 cells assessed as early apoptotic cells at 2 uM incubated for 24 hrs by Annexin V-FITC/PI staining based flow cytometric analysis (reference value: 1.53%); format: functional
A549 [6] = assay: Induction of apoptosis in human A549 cells assessed as late apoptotic cells at 2 uM incubated for 24 hrs by Annexin V-FITC/PI staining based flow cytometric analysis (reference value: 2.18%); format: functional
A549 [7] = assay: Induction of apoptosis in human A549 cells assessed as necrotic cells at 2 uM incubated for 24 hrs by Annexin V-FITC/PI staining based flow cytometric analysis (reference value: 1.20%); format: functional
A549 [8] = assay: In vivo antitumor activity against human A549 cells xenografted in female BALB/c nu/nu mouse assessed as tumor volume at 10 mg/kg, iv administered every 3 days and measured on 18 day relative to control; format: functional; conditions: time 3 day
HCT-116 = assay: cells; conditions: Homo sapiens, HCT-116, 72 h
Description: Antiproliferative activity against human HCT-116 cells assessed as inhibition of cell proliferation incubated for 72 hrs by CCK-8 assay

HeLa = assay: cells; format: functional, cell-based; conditions: Homo sapiens, 72 h
Description: Antiproliferative activity against human Hela cells assessed as inhibition of cell proliferation incubated for 72 hrs by CCK-8 assay

HepG2 = assay: Antiproliferative activity against human HepG2 cells assessed as inhibition of cell proliferation incubated for 72 hrs by CCK-8 assay; format: functional, cell-based; conditions: HepG2, 72 h

Chain of Signal transducer and activator of transcription 3 (P40763 whole entry): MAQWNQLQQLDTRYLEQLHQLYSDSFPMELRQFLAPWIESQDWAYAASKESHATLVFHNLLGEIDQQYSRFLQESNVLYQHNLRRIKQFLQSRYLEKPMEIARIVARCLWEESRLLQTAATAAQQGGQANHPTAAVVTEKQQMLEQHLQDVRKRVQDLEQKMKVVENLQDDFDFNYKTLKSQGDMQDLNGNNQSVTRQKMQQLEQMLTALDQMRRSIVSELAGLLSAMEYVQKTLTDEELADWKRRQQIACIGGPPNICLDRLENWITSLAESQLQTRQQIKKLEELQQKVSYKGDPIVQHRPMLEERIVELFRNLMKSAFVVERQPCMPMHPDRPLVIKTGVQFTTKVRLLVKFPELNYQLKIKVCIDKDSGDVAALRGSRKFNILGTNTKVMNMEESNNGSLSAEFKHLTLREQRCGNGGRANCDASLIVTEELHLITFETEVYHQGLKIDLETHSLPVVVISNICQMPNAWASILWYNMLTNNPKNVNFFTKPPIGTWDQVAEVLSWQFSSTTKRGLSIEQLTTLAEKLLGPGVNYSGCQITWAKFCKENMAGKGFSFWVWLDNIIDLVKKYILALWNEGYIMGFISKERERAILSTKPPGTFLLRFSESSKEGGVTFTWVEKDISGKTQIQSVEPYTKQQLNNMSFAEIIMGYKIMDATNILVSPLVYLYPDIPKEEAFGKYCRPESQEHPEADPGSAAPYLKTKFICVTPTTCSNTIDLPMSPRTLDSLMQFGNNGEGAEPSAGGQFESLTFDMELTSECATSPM
Chain of Histone deacetylase 3 (O15379 whole entry): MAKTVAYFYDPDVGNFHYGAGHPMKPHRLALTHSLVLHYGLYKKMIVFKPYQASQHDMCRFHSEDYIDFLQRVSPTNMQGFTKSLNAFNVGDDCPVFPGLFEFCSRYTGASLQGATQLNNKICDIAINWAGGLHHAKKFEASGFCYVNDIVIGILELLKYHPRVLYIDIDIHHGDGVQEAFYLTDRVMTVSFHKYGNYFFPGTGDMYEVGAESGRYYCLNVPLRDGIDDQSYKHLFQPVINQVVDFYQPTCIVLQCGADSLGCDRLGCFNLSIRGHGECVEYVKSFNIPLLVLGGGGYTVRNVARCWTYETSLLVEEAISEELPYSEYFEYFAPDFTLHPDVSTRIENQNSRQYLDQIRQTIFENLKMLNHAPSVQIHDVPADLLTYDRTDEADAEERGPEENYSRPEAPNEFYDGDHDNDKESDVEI
Chain of Histone deacetylase 1 (Q13547 whole entry): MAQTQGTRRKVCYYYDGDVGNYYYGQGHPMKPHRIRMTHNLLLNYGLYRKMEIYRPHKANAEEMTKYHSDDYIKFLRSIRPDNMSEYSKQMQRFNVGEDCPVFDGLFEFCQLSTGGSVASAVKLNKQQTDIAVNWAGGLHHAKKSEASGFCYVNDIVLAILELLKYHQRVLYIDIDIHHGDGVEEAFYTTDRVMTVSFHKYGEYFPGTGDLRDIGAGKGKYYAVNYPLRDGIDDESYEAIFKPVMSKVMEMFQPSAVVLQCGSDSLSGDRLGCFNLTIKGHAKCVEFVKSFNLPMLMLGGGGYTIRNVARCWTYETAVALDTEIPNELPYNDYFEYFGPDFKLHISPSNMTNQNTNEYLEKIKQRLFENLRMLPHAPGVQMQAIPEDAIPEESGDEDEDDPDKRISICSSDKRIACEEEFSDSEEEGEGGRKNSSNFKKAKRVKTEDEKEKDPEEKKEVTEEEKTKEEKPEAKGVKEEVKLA
Chain of Histone deacetylase 2 (Q92769 whole entry): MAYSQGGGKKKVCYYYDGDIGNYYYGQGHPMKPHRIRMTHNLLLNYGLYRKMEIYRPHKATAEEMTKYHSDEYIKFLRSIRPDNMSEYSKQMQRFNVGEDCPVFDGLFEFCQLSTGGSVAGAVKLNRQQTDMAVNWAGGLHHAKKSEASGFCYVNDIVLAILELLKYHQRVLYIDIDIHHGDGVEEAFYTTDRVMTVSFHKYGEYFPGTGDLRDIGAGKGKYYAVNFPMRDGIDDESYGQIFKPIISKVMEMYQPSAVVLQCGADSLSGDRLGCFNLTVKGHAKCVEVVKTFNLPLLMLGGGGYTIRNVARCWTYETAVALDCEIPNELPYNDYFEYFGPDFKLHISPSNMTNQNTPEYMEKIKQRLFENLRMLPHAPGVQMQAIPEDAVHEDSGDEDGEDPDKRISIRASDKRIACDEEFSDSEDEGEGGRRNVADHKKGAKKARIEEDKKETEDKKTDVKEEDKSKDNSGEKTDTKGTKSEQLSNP

| IC50 (Histone deacetylase 1) [nM] | IC50 (Histone deacetylase 2) [nM] | IC50 (Histone deacetylase 3) [nM] | IC50 [1] [nM] | Kd [2] [nM] | IC50 (A549 [3]) [nM] | IC50 (HCT-116) [nM] | IC50 (HeLa) [nM] | IC50 (HepG2) [nM] | Compound | Activity (A549 [4]) [%] | Activity (A549 [5]) [%] | Activity (A549 [6]) [%] | Activity (A549 [7]) [%] | Activity (A549 [8]) [%] | viability at 2 µM (A549 [4]; Homo sapiens, A549, read-out: Activity) [%] |
| --- | --- | --- | --- | --- | --- | --- | --- | --- | --- | --- | --- | --- | --- | --- | --- |
| 748 | > 1000 | > 1000 | 162 | 20100 | > 10000 | – | – | – | C=C1C(=O)O[C@@H]2C[C@@]3(C)CC[C@@H](OC(=O)[C@@H](C)NC(=O)c4ccc(C(=O)NO)cc4)C(=C)[C@@H]3C[C@H]12 | – | – | – | – | – | – |
| > 1000 | > 1000 | > 1000 | > 1000 | > 50000 | > 10000 | – | – | – | C=C1C(=O)O[C@@H]2C[C@@]3(C)CC[C@@H](OC(=O)[C@H](NC(=O)c4ccc(C(=O)Nc5ccccc5N)cc4)C(C)C)C(=C)[C@@H]3C[C@H]12 | – | – | – | – | – | – |
| 6510 | > 1000 | > 1000 | > 1000 | 20700 | 6670 | – | – | – | C=C1C(=O)O[C@@H]2C[C@@]3(C)CC[C@@H](OC(=O)[C@@H](CC)NC(=O)c4ccc(C(=O)Nc5ccccc5N)cc4)C(=C)[C@@H]3C[C@H]12 | – | – | – | – | – | – |
| > 1000 | > 1000 | > 1000 | > 1000 | > 50000 | > 10000 | – | – | – | C=C1C(=O)O[C@@H]2C[C@@]3(C)CC[C@@H](OC(=O)[C@H](CC(C)C)NC(=O)c4ccc(C(=O)Nc5ccccc5N)cc4)C(=C)[C@@H]3C[C@H]12 | – | – | – | – | – | – |
| 122 | 507 | 473 | > 1000 | 4960 | 2240 | – | – | – | C=C1C(=O)O[C@@H]2C[C@@]3(C)CC[C@@H](OC(=O)[C@@H](C)NC(=O)c4ccc(C(=O)Nc5ccccc5N)cc4)C(=C)[C@@H]3C[C@H]12 | – | – | – | – | – | – |
| 193 | 342 | 272 | 64 | 3890 | 4530 | – | – | – | C=C1C(=O)O[C@@H]2C[C@@]3(C)CC[C@@H](OC(=O)[C@@H](C)NC(=O)c4ccc(/C=C/C(=O)NO)cc4)C(=C)[C@@H]3C[C@H]12 | – | – | – | – | – | – |
| 568 | 844 | 441 | 267 | > 50000 | > 10000 | – | – | – | C=C1C(=O)O[C@@H]2C[C@@]3(C)CC[C@@H](OC(=O)[C@H](C)NC(=O)c4ccc(C(=O)NO)cc4)C(=C)[C@@H]3C[C@H]12 | – | – | – | – | – | – |
| 86.5 | 92.7 | 63.1 | 45.3 | – | 1870 | – | – | – | C=C1C(=O)O[C@@H]2C[C@@]3(C)CC[C@@H](OC(=O)CNC(=O)c4cccc(/C=C/C(=O)NO)c4)C(=C)[C@@H]3C[C@H]12 | – | – | – | – | – | – |
| – | – | – | – | > 50000 | – | 1870 | – | – | O=C(CCCCCCC(=O)Nc1ccccc1)NO [VORINOSTAT] | 67.04 | 5.72 | 24.68 | 2.58 | 61 | – |
| 206 | 404 | 113 | 62.4 | 12300 | 4530 | – | – | – | C=C1C(=O)O[C@@H]2C[C@@]3(C)CC[C@@H](OC(=O)[C@H](C)NC(=O)c4cccc(/C=C/C(=O)NO)c4)C(=C)[C@@H]3C[C@H]12 | – | – | – | – | – | – |
| 453 | > 1000 | > 1000 | > 1000 | 6880 | 5610 | – | – | – | C=C1C(=O)O[C@@H]2C[C@@]3(C)CC[C@@H](OC(=O)[C@@H](CC(C)C)NC(=O)c4ccc(C(=O)Nc5ccccc5N)cc4)C(=C)[C@@H]3C[C@H]12 | – | – | – | – | – | – |
| – | 212 | – | – | > 50000 | 6400 | – | – | – | Nc1ccc(F)cc1NC(=O)c1ccc(CNC(=O)/C=C/c2cccnc2)cc1 | – | – | – | – | – | – |
| 202 | 189 | 107 | 87.5 | > 50000 | 2560 | – | – | – | C=C1C(=O)O[C@@H]2C[C@@]3(C)CC[C@@H](OC(=O)CNC(=O)c4ccc(C(=O)NO)cc4)C(=C)[C@@H]3C[C@H]12 | – | – | – | – | – | – |
| > 1000 | > 1000 | > 1000 | > 1000 | 17400 | > 10000 | – | – | – | C=C1C(=O)O[C@@H]2C[C@@]3(C)CC[C@@H](OC(=O)[C@@H](NC(=O)c4ccc(C(=O)Nc5ccccc5N)cc4)C(C)C)C(=C)[C@@H]3C[C@H]12 | – | – | – | – | – | – |
| > 1000 | > 1000 | > 1000 | > 1000 | 22600 | > 10000 | – | – | – | C=C1C(=O)O[C@@H]2C[C@@]3(C)CC[C@@H](OC(=O)[C@H](CC)NC(=O)c4ccc(C(=O)Nc5ccccc5N)cc4)C(=C)[C@@H]3C[C@H]12 | – | – | – | – | – | – |
| > 1000 | > 1000 | > 1000 | > 1000 | 46100 | 1810 | 2610 | 4380 | 7250 | C=C1C(=O)O[C@@H]2C[C@@]3(C)CCCC(=C)[C@@H]3C[C@H]12 [ISOALANTOLACTONE] | – | 3.67 | 10.91 | 1.82 | – | 83.6 |
| 622 | > 1000 | > 1000 | > 1000 | 4760 | 7470 | – | – | – | C=C1C(=O)O[C@@H]2C[C@@]3(C)CC[C@@H](OC(=O)[C@@H](Cc4ccccc4)NC(=O)c4ccc(C(=O)Nc5ccccc5N)cc4)C(=C)[C@@H]3C[C@H]12 | – | – | – | – | – | – |
| > 1000 | > 1000 | > 1000 | > 1000 | 39300 | > 10000 | – | – | – | C=C1C(=O)O[C@@H]2C[C@@]3(C)CC[C@@H](OC(=O)CNC(=O)c4ccc(C(=O)Nc5ccccc5N)cc4)C(=C)[C@@H]3C[C@H]12 | – | – | – | – | – | – |
| > 1000 | > 1000 | > 1000 | > 1000 | 8960 | 3340 | – | – | – | C=C1C(=O)O[C@@H]2C[C@@]3(C)CC[C@@H](OC(=O)[C@H](C)NC(=O)c4ccc(C(=O)Nc5ccccc5N)cc4)C(=C)[C@@H]3C[C@H]12 | – | – | – | – | – | – |
| 197 | 313 | 103 | 86.9 | 13500 | 4330 | – | – | – | C=C1C(=O)O[C@@H]2C[C@@]3(C)CC[C@@H](OC(=O)[C@@H](C)NC(=O)c4cccc(/C=C/C(=O)NO)c4)C(=C)[C@@H]3C[C@H]12 | – | – | – | – | – | – |
| > 1000 | > 1000 | > 1000 | > 1000 | > 50000 | > 10000 | – | – | – | C=C1C(=O)O[C@@H]2C[C@@]3(C)CC[C@@H](OC(=O)[C@H](Cc4ccccc4)NC(=O)c4ccc(C(=O)Nc5ccccc5N)cc4)C(=C)[C@@H]3C[C@H]12 | – | – | – | – | – | – |
